One experiment concerns RXF 393. The experiment in a line: Growth inhibition of human RXF393 cells assessed as cell growth at 10 uM after 48 hrs by MTT assay; values are per cent of control. The following applies: RXF 393, 48 h.
Experiment [1] can be described thus: Growth inhibition of human NCI-ADR-RES cells assessed as cell growth at 10 uM after 48 hrs by MTT assay; values are per cent of control.
A further experiment has as its system BT-549. Description: Growth inhibition of human BT549 cells assessed as cell growth at 10 uM after 48 hrs by MTT assay; values are per cent of control. The following applies: BT-549, 48 h.
In the next experiment the test system is U-251. The experiment in a line: Growth inhibition of human U251 cells assessed as cell growth at 10 uM after 48 hrs by MTT assay; values are per cent of control. The following applies: U-251, 48 h.
The next experiment has as its system UACC-62. Description: Growth inhibition of human UACC62 cells assessed as cell growth at 10 uM after 48 hrs by MTT assay; values are per cent of control. The following applies: UACC-62, 48 h.
The next experiment relates to MOLT-4. Description: Growth inhibition of human MOLT4 cells assessed as cell growth at 10 uM after 48 hrs by MTT assay; values are per cent of control. The following applies: MOLT-4, 48 h.

The structures appear in SMILES notation.

Regarding `c1cncc(-c2cnn[nH]2)c1`, the growth, % of control at 10 µM in the experiment on RXF 393 is 98.6%; in experiment [1], 71.3%; in the experiment with BT-549, 97.7%; in the experiment with U-251 it was 111%; in the experiment with UACC-62, 90.7%; with MOLT-4 it was 101%.

For the origin of these results see ChEMBL document CHEMBL2062496, “Identification of a sirtuin 3 inhibitor that displays selectivity over sirtuin 1 and 2” (Eur J Med Chem, 2012).
